Assay results published in article PMC6779874, “ACT001, a novel PAI-1 inhibitor, exerts synergistic effects in combination with cisplatin by inhibiting PI3K/AKT pathway in glioma” (Cell Death & Disease, 2019).

Key:
[1] = molecular target: T1, PAI-1 (plasminogen activator inhibitor-1) (Homo sapiens, UniProt P05121); experiment: SPR (Biacore […], immobilized PAI-1); also CETSA/ITDR in cell extract; type: binding
T1 construct: gene SERPINE1; Recombinant human PAI-1

[2] = molecular target: T1, PAI-1 (plasminogen activator inhibitor-1); experiment: SPR (Biacore […], immobilized PAI-1); also CETSA in cell extract; prodrug that releases MCL; type: binding

T1 sequence (P05121 24-402): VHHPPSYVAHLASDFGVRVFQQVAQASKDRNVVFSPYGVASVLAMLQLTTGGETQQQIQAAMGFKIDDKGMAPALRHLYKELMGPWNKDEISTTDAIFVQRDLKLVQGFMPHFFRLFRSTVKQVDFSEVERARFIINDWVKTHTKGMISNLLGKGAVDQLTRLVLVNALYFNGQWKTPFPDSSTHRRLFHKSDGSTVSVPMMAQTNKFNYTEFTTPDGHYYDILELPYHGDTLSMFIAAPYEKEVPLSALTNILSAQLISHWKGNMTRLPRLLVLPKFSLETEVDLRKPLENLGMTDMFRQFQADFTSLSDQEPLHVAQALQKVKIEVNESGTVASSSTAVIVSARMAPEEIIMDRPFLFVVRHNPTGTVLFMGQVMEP

| Kd [1] | SMILES | Kd [2] |
| --- | --- | --- |
| 10.8 µM | C=C1C(=O)O[C@H]2[C@H]1CCC(C)=C1CC[C@@](C)(O)[C@@H]12 [MCL] | – |
| – | CC1=C2CC[C@@](C)(O)[C@@H]2[C@H]2OC(=O)[C@@H](CN(C)C)[C@@H]2CC1 [ACT001] | 2310 µM |
